From US9782522B2, “Compositions and methods for treating and preventing neointimal stenosis” (Yale University, priority 2011, dated 2017)

Legend:
HUAEC = assay: qRT-PCR mRNA expression of TGFβ signaling and Endo-MT markers in endothelial cells; type: cell-based, human; conditions: FRS2 knockdown EC; 10 μM
From the text: Human 293T T17 cells (ATCC CRL-11268) were maintained in Dulbecco's modified Eagle's medium (Gibco) with 10% fetal bovine serum (Invitrogen) and penicillinstreptomycin (Gibco). Primary human mammary epithelial cells (HuMEC, Invitrogen), were maintained in HuMEC basal serum free medium with HuMEC supplement (Invitrogen 12754-016) and bovine pituitary extract (Invitrogen 13028-014). Human foreskin cells (ATCC CRL-1079Sk) were maintained in Minimum Essential Medium (ATCC) with 10% fetal bovine serum (Hyclone), β-mercaptoethanol (Sigma), and penicillin-streptomycin (Gibco). Primary human atrial cells (passage 3-5; gift from Y. Qyang, Yale University School of Medicine) were maintained in Dulbecco's modified Eagle's medium (Gibco) with 10% fetal bovine serum (Invitrogen), L-glutamine (Gibco), Sodium pyruvate (Gibco), Non-essential amino acid (Gibco), and penicillin-streptomycin (Gibco). HUAEC (human umbilical artery endothelial cells, passage 5-10, Lonza) were cultured in EBM-2 supplemented with EGM-2-MV bullet kit (Lonza). HUVEC (human umbilical vein endothelial cells, passage 3-7, Yale Vascular Biology and Therapeutics) were cultured in M199 with ECGS, supplemented with 20% FBS (Sigma), L-glutamine (Gibco), and penicillin-streptomycin (Gibco). Culture vessels were coated with 0.1% gelatin (Sigma) for 30 min at 37° C. immediately prior to cell seeding. Primary mouse endothelial cells were isolated from the heart using rat anti-mouse CD31 antibody and Dynabeads (Invitrogen) as previously described (Partovian C, et al. Mol Cell. 32(1):140 (2008)).
RNA was isolated using RNeasy® plus Mini Kit (Qiagen) and converted to cDNA using iScript™ cDNA synthesis kit (Bio-Rad). Quantitative real-time PCR (qRT-PCR) was performed using Bio-Rad […] (Bio-Rad) by mixing equal amount of eDNAs, iQ™ SYBR® Green Supermix (Bio-Rad) and gene specific primers. All reactions were done in a 25 μl reaction volume in duplicate. Data were normalized to endogenous β-actin. Values are expressed as fold change in comparison to control. Mouse TGFβ gene expression was quantified via qRT-PCR with TaqMan® Gene Expression Assays (Mm00441726_m1; Applied Biosystems) and HPRT (Mm00441258_1; Applied Biosystems) as endogenous control followed the manufacturer's recommendation. Quantitative PCR analysis of 84 TGFβ and epithelial to mesenchymal transition (EMT) related genes were performed using Human TGFβ BMP signaling pathway (PAHS-035D, QIAGEN) and Human Epithelial to Mesenchymal Transition (PAHS-090D, QIAGEN) RT^2 Profiler™ PCR Arrays following the manufacturer's protocol. RT^2 Profiler™ PCR arrays were run on a Bio-Rad CFX96 machine (Bio-Rad). Duplicate arrays were run per condition for control and FRS2 knockdown human umbilical arterial endothelial cells (HUAEC). Data analysis was performed using the manufacturer's integrated web-based software package for the PCR Array System using cycle threshold (Ct)-based fold-change calculations.
Recombinant human FGF2 (R&D) and TGFβ1 (Peprotech) were reconstituted in 0.1% BSA/PBS. U0126 (Sigma), a MEK inhibitor, was reconstituted in DMSO and used at a final concentration of 10 μM. SB431542 (Sigma), a TGFBR1 kinase inhibitor, was reconstituted in DMSO and used at a final concentration of 10 μM in cell culture. Actinomycin D (Sigma), a DNA transcription suppressor, was reconstituted in acetone and used at a final concentration of 10 μg/ml in cell culture. […]

[1] = SB-431542 release from microparticles and scaffolds; type: physicochemical
Description: Total encapsulation was approximated as the amount of SB-431542 released over a 14-day period. Percent encapsulation efficiency was calculated as total encapsulation divided by maximum theoretical encapsulation. 5 mg of avidin-coated PLGA microparticles containing SB-431542, PGA-P(CL/LA) trimmed scaffolds and treated with pLLB and SB-431542-eluting microparticles as above, and SB-431542-eluting PGA-P(CL/LA) trimmed scaffolds were incubated with PBS in triplicate on a rotary shaker at 37° C. Samples were removed at specific time points and centrifuged at 13200 RPM for 10 minutes. 300 μl of supernatant was drawn and replaced with 300 μl PBS. Concentration of SB-431542 in supernatant diluted with 600 μl PBS was determined by spectrophotometry at 320 nm.

3T3 human fibroblasts = assay: Bioactivity of encapsulated SB-431542 (phosphorylated SMAD-2 after TGF-β1); type: cell-based
Description: SB-431542 was released into 1 ml PBS from 10 mg avidin-coated PLGA microparticles and one untrimmed SB-431542-eluting PGA-P(CL/LA) scaffold in 2 ml microcentrifuge tubes at 37° C. At 48 hours, samples were centrifuged at 13200 RPM for 10 minutes, supernatants were collected and analyzed by spectrophotometry at 320 nm. SB-431542 concentrations were adjusted to 10 μM by dilution with PBS. 3T3 human fibroblasts were plated at 500,000/well and stimulated at confluence with 700 ul 10 μM SB-431542 in PBS eluted from particles or scaffolds, a stock solution of 10 or 1 μM SB-431542 containing <1% DMSO, or PBS. After 30 minutes at 37° C., cells were washed and stimulated with 200 ul 2 ng/ml recombinant human TGF-β1 (BD Biosciences) for 1 hour at 37 C. Cells were lysed and protein samples were separated by gel electrophoresis with a 12% polyacrylamide gel and probed with primary antibody to phosphorylated SMAD-2 (ser426/ser428, Cell Signaling Technology) and secondary goat anti-rabbit IgG (Cell Signaling Technology). The gel was stripped and reprobed with anti-SMAD2/3 as a loading control.

[2] = inhibitor added to the solvent used to make the grafts

In the case of `NC(=O)c1ccc(-c2nc(-c3ccc4c(c3)OCO4)c(-c3ccccn3)[nH]2)cc1` [SB431542, 4-[4-(1,3-Benzodioxol-5-yl)-5-(2-pyridinyl)-1H-imidazol-2-yl]-benzamide], the SM-calponin expression (HUAEC) is reported as “significantly decreased”, the fibronectin expression (HUAEC) is reported as “significantly decreased” and the vimentin expression (HUAEC) is reported as “significantly decreased”. The “Release of the drug” value ([1]; PLGA microparticle system tethered to TEVG scaffold, full 2-week time course) was “steady release”, the Release profile [1, 2] was “favorable release profile” and the “Biologic activity of the released drug” value (3T3 human fibroblasts; [2]) was “continued biologic activity”. For the same compound, the “Biologic activity of the released drug” value (3T3 human fibroblasts; microparticle system) was “maintains its biologic activity”.
